Experimental data: patent US10307413B2, “Tetrahydro- and dihydro-isoquinoline PRMT5 inhibitors and uses thereof” (Epizyme, Inc., priority 2013, dated 2019)

What was measured:
[1] = tested on: Z-138 cell line; experiment: Z-138 Proliferation Assay (Cell Titer Glo, 5 days); assay type: cell-based; conditions: Homo sapiens, 120 h; Z-138 cells, 5 days; read-out: Proliferation EC50
How it was run: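 Viability via CellTiter-Glo luminescence (ATP) after 5-day incubation at 37 °C, 5% CO2. Compounds tested in triplicate, nine 3-fold steps, highest final concentration 20 μM in 0.2% DMSO; 50% inhibitory concentration by 4-parameter fit of normalized curves.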

[2] = tested on: symmetric di-methyl arginine in Z-138 cells; experiment: Z-138 Methylation Assay (In Cell Western for symmetric di-methyl arginine and DNA content); assay type: cell-based; conditions: Homo sapiens, read-out: ICW EC50
How it was run: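 In-cell western: symmetric di-methyl arginine signal ratioed to DRAQ5 DNA content after 96 h compound exposure of Z-138 cells seeded at 50,000 cells/mL.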

| SMILES | EC50 [1] [µM] | EC50 [2] [µM] |
| --- | --- | --- |
| O=C(NC[C@H](O)CN1CCc2ccccc2C1)c1cc(NC2CCN(CC(F)(F)F)C2)ncn1 (stereo partly shown) [Compound 182] | 1 to 10 | < 0.1 |
| O=C(NC[C@H](O)CN1CCc2ccccc2C1)c1cncc(OC2CCOCC2)c1 [Compound 183] | 1 to 10 | < 0.1 |
| O=C(NC[C@@H](O)CN1CCc2ccccc2C1)c1ccnc(NC2CCOCC2)c1 [Compound 184] | 1 to 10 | < 0.1 |
| O=C(NC[C@@H](O)CN1CCc2ccccc2C1)c1cc(NC2CCOCC2)ncn1 [Compound 185] | 1 to 10 | 0.101 to 1 |
| CN(C)CCN(C)c1cc(C(=O)NC[C@H](O)CN2CCc3ccccc3C2)ccn1 [Compound 186] | 1 to 10 | < 0.1 |
| O=C(NC[C@H](O)CN1CCc2ccccc2C1)c1ccnc(NCC2CC2)c1 [Compound 187] | 0.101 to 1 | < 0.1 |
| O=C(NC[C@H](O)CN1CCc2ccccc2C1)c1ccnc(NC2CCC2)c1 [Compound 188] | < 0.1 | < 0.1 |
| O=C(NC[C@H](O)CN1CCc2ccccc2C1)c1ccnc(NCc2ccncc2)c1 [Compound 189] | 0.101 to 1 | < 0.1 |
| O=C(NC[C@H](O)CN1CCc2ccccc2C1)c1ccnc(NCc2cccnc2)c1 [Compound 190] | 0.101 to 1 | < 0.1 |
| O=C(NC[C@H](O)CN1CCc2ccccc2C1)c1ccnc(NCc2ccccn2)c1 [Compound 191] | 0.101 to 1 | < 0.1 |
| O=C(NC[C@H](O)CN1CCc2ccccc2C1)c1ccnc(NC2CCOCC2)c1 [Compound 192] | 0.101 to 1 | < 0.1 |
| O=C(NC[C@H](O)CN1CCc2ccccc2C1)c1cc(NC2CCOCC2)ncn1 [Compound 193] | 0.101 to 1 | < 0.1 |
| CN(C)C(=O)CCCN1CCN(Cc2cccc(C(=O)NCC(O)CN3CCc4ccccc4C3)c2)CC1 (stereo not shown) [Compound 194] | 1 to 10 | 0.101 to 1 |
| CN(CC(N)=O)Cc1cccc(C(=O)NCC(O)CN2CCc3ccccc3C2)c1 (stereo not shown) [Compound 195] | 10 to 50 | 0.101 to 1 |
| CC(C)N1CCC(Oc2ccc(C(=O)NCC(O)CN3CCc4ccccc4C3)cc2)C1 (stereo not shown) [Compound 196] | 1 to 10 | < 0.1 |
| CC(=O)N1CCC(Oc2ccc(C(=O)NCC(O)CN3CCc4ccccc4C3)cc2)C1 (stereo not shown) [Compound 197] | 0.101 to 1 | < 0.1 |

| SMILES | EC50 [1] [µM] | EC50 [2] [µM] |
| --- | --- | --- |
| CS(=O)(=O)N1CCC(Oc2ccc(C(=O)NCC(O)CN3CCc4ccccc4C3)cc2)C1 (stereo not shown) [Compound 198] | 0.101 to 1 | < 0.1 |
| O=C(NCC(O)CN1CCc2ccccc2C1)c1ccc(OC2CCN(CC(F)(F)F)C2)cc1 (stereo not shown) [Compound 199] | 1 to 10 | < 0.1 |
| O=C(NC[C@H](O)CN1CCc2ccccc2C1)c1ccnc(NC2CCNCC2)c1 [Compound 200] | 10 to 50 | 0.101 to 1 |
| O=C(NC[C@H](O)CN1CCc2ccccc2C1)c1ccnc(NC2CCNC2)c1 (stereo partly shown) [Compound 201] | 1 to 10 | 0.101 to 1 |
| CN1CCC(Oc2cc(C(=O)NC[C@H](O)CN3CCc4ccccc4C3)ccn2)CC1 [Compound 202] | 1 to 10 | < 0.1 |
| O=C(NC[C@H](O)CN1CCc2ccccc2C1)c1ccnc(OC2CCN(CC(F)(F)F)CC2)c1 [Compound 203] | 0.101 to 1 | < 0.1 |
| CS(=O)(=O)N1CCC(Oc2cc(C(=O)NC[C@H](O)CN3CCc4ccccc4C3)ccn2)CC1 [Compound 204] | 0.101 to 1 | < 0.1 |
| CC(=O)N1CCC(Oc2cc(C(=O)NC[C@H](O)CN3CCc4ccccc4C3)ccn2)CC1 [Compound 205] | 0.101 to 1 | < 0.1 |
| CC(=O)N1CCC(Nc2cc(C(=O)NC[C@H](O)CN3CCc4ccccc4C3)ncn2)CC1 [Compound 208, (S)-6-((1-acetylpiperidin-4-yl)amino)-N-(3-(3,4-dihydroisoquinolin-2(1H)-yl)-2-hydroxypropyl)pyrimidine-4-carboxamide] | < 0.1 | < 0.1 |
| O=C(NC[C@H](O)CN1CCc2ccccc2C1)c1cc(NC2CCNC2)ncn1 (stereo partly shown) [Compound 209] | 10 to 50 | < 0.1 |
| CC(=O)N1CCC(Nc2cc(C(=O)NC[C@H](O)CN3CCc4ccccc4C3)ncn2)C1 (stereo partly shown) [Compound 210] | 0.101 to 1 | < 0.1 |
| O=C(NC[C@H](O)CN1CCc2ccccc2C1)c1cncc(NC2CCOC2)c1 (stereo partly shown) [Compound 211] | < 0.1 | < 0.1 |
| C[C@@H]1COCCC1Nc1cccc(C(=O)NC[C@H](O)CN2CCc3ccccc3C2)c1 (stereo partly shown) [Compound 212] | 0.101 to 1 | < 0.1 |
| C[C@H]1COCCC1Nc1cccc(C(=O)NC[C@H](O)CN2CCc3ccccc3C2)c1 (stereo partly shown) [Compound 213] | 0.101 to 1 | < 0.1 |
| CN(C)CCNc1cc(C(=O)NC[C@H](O)CN2CCc3ccccc3C2)ccn1 [Compound 214] | 1 to 10 | < 0.1 |
| CC(=O)N1CCC(Nc2cccc(C(=O)NC[C@H](O)CN3CCc4ccccc4C3)c2)CC1 [Compound 215] | < 0.1 | < 0.1 |
